Key:
[1] = Half life in human serum; type: ADME, cell-free
[2] = Half life were determined in CEM-SS cell extract in decomposition step 1; type: ADME; conditions: human
[3] = Half life in culture medium containing 10% of heat inactivated foetal calf serum; type: ADME, cell-free, Bos taurus; conditions: cattle
[4] = Partition coefficient (logP); type: physicochemical; conditions: octanol/water
[5] = The pKa value was reported; type: physicochemical
[6] = system: CEM-SS; assay: Cytotoxic concentration to inhibit HIV replication in TK CEM-SS cell line and the value is represented as CC50; type: functional; conditions: Homo sapiens
[7] = system: CEM-SS; assay: Effective concentration to inhibit HIV replication in TK CEM-SS cell line and the value is represented as EC50; type: functional, cell-based; conditions: Homo sapiens
[8] = system: CEM-SS; assay: Effective concentration to inhibit HIV replication in TK CEM-SS cell line; type: functional, cell-based; conditions: Homo sapiens
[9] = system: CEM-SS; assay: Cytotoxic concentration to inhibit HIV replication in TK CEM-SS cell line; type: functional; conditions: Homo sapiens

Compound	half-life [1] [h]	half-life [2] [h]	half-life [3] [h]	logP [4]	pKa [5]	CC50 [6] [µM]	EC50 [7] [µM]	EC50 [8] [µM]	CC50 [9] [µM]
Cc1cn(C2CC(N=[N+]=[N-])C(COP(=O)(NC(C)(C)C)OCCSC(=O)C(C)(C)C)O2)c(=O)[nH]c1=O (centres undefined)	23	1.2	350	2.45	10.4	> 100	1.5	–	–
Cc1cn(C2CC(N=[N+]=[N-])C(COP(=O)(O)N3CCOCC3)O2)c(=O)[nH]c1=O (centres undefined)	23	2.1	385	1.86	8.36	> 100	2	–	–
Cc1cn(C2CC(N=[N+]=[N-])C(COP(=O)(NC(C)C)OCCSC(=O)C(C)(C)C)O2)c(=O)[nH]c1=O (centres undefined)	10	1.2	200	1.91	10.6	–	–	0.63	> 100
Cc1cn(C2CC(N=[N+]=[N-])C(COP(=O)(O)N3CCCCC3)O2)c(=O)[nH]c1=O (centres undefined)	–	1.2	–	2.77	11.1	> 100	5.2	–	–
Cc1cn(C2CC(N=[N+]=[N-])C(COP(=O)(Nc3ccccc3)OCCSC(=O)C(C)(C)C)O2)c(=O)[nH]c1=O (centres undefined)	23	1.4	100	2.55	4.68	> 10	> 10	–	–
Cc1cn([C@H]2C[C@H](N=[N+]=[N-])[C@@H](CO)O2)c(=O)[nH]c1=O [ZIDOVUDINE]	–	–	–	–	–	–	–	> 100	> 100
CCCCNP(=O)(O)OCC1OC(n2cc(C)c(=O)[nH]c2=O)CC1N=[N+]=[N-] (centres undefined)	29	1.3	165	2.67	10.6	> 100	1.2	–	–
CCCCN(CCCC)P(=O)(O)OCC1OC(n2cc(C)c(=O)[nH]c2=O)CC1N=[N+]=[N-] (centres undefined)	23	0.96	136	4	11.2	> 10	> 10	–	–

Source: ChEMBL document CHEMBL1134128, “Rational design of a new series of pronucleotide” (Bioorg Med Chem Lett, 2001)
